This is an account of results in ChEMBL document CHEMBL3045077, “Intravenous pharmacokinetics and oral bioavailability of biochanin A in female rats” (Med Chem Res, 2011).

Common to all, as to format: ADME, organism-based
A short description of series [1]: Apparent volume of distribution in Rattus norvegicus Sprague-Dawley (rat) at 5 mg/kg, iv. The arrangement: dose 5 mg/kg, route intravenous. The settings on record: in vivo, read-out: Vd(app).
A short description of series [2]: Apparent elimination half life in Rattus norvegicus Sprague-Dawley (rat) at 50 mg/kg, po. The arrangement: dose 50 mg/kg, route oral. The following applies: in vivo, read-out: betat1/2(app) (converted).
Series [3] can be described thus: Apparent elimination half life in Rattus norvegicus Sprague-Dawley (rat) at 5 mg/kg, iv. The arrangement: dose 5 mg/kg, route intravenous. The settings on record: in vivo, read-out: betat1/2(app) (converted).
A short description of series [4]: Total clearance in Rattus norvegicus Sprague-Dawley (rat) at 5 mg/kg, iv. Also noted: dose 5 mg/kg, route intravenous. The settings on record: in vivo.

As to `COc1ccc(-c2coc3cc(O)cc(O)c3c2=O)cc1` [BIOCHANIN], the Vd in series [1] worked out at 10.6 L/kg. Moreover, the half-life is 13.7 h in series [2] and 1 h in series [3]. Further, the clearance in series [4] is 262 mL/min/kg.

One may read the clearance as the volume of plasma or blood freed of the substance per unit of time.
